Measured values published in the NIST ThermoML archive (doi:10.1021/acs.jced.8b00854).

Legend:
[1] = xn = mol fraction of the nth substance listed; conditions: 100 kPa, Liquid, Vibrating tube method
[2] = refractive index (Na D-line) (dimensionless); xn = mol fraction of the nth substance listed; conditions: 100 kPa, Liquid, Standard Abbe refractometry

CCn1cc[n+](C)c1.F[B-](F)(F)F [1-ethyl-3-methylimidazolium tetrafluoroborate] + O
Conditions | mass density, [1] [kg/m3] | refractive index, [2]
293.15 K, x1 = 0.1001 | 1135.98 | 1.369
293.15 K, x1 = 0.2002 | 1190.68 | 1.3825
293.15 K, x1 = 0.3004 | 1219.59 | 1.3915
293.15 K, x1 = 0.4003 | 1237.8 | 1.398
293.15 K, x1 = 0.5009 | 1251.03 | 1.401
293.15 K, x1 = 0.5999 | 1261.19 | 1.4045
293.15 K, x1 = 0.7002 | 1269.24 | 1.4065
293.15 K, x1 = 0.8004 | 1275.23 | 1.4085
293.15 K, x1 = 0.9011 | 1279.57 | 1.4105
303.15 K, x1 = 0.1001 | 1129.7 | 1.367
303.15 K, x1 = 0.2002 | 1183.7 | 1.381
303.15 K, x1 = 0.3004 | 1212.47 | 1.3895
303.15 K, x1 = 0.4003 | 1230.6 | 1.3955
303.15 K, x1 = 0.5009 | 1243.72 | 1.3995
303.15 K, x1 = 0.5999 | 1253.76 | 1.402
303.15 K, x1 = 0.7002 | 1261.71 | 1.4045
303.15 K, x1 = 0.8004 | 1267.64 | 1.407
303.15 K, x1 = 0.9011 | 1271.96 | 1.408
313.15 K, x1 = 0.1001 | 1123.34 | 1.3655
313.15 K, x1 = 0.2002 | 1176.44 | 1.379
313.15 K, x1 = 0.3004 | 1204.95 | 1.3875
313.15 K, x1 = 0.4003 | 1223.03 | 1.3935
313.15 K, x1 = 0.5009 | 1236.17 | 1.3975
313.15 K, x1 = 0.5999 | 1246.23 | 1.4005
313.15 K, x1 = 0.7002 | 1254.19 | 1.4025
313.15 K, x1 = 0.8004 | 1260.1 | 1.405
313.15 K, x1 = 0.9011 | 1264.39 | 1.4065
323.15 K, x1 = 0.1001 | 1116.34 | 1.364
323.15 K, x1 = 0.2002 | 1169.01 | 1.377
323.15 K, x1 = 0.3004 | 1197.41 | 1.3875
323.15 K, x1 = 0.4003 | 1215.41 | 1.392
323.15 K, x1 = 0.5009 | 1228.52 | 1.3965
323.15 K, x1 = 0.5999 | 1238.61 | 1.399
323.15 K, x1 = 0.7002 | 1246.64 | 1.401
323.15 K, x1 = 0.8004 | 1252.61 | 1.4025
323.15 K, x1 = 0.9011 | 1256.9 | 1.4045
333.15 K, x1 = 0.1001 | 1110.02 | 1.362
333.15 K, x1 = 0.2002 | 1161.89 | 1.376
333.15 K, x1 = 0.3004 | 1190.09 | 1.385
333.15 K, x1 = 0.4003 | 1208.03 | 1.391
333.15 K, x1 = 0.5009 | 1221.09 | 1.395
333.15 K, x1 = 0.5999 | 1231.14 | 1.398
333.15 K, x1 = 0.7002 | 1239.11 | 1.399
333.15 K, x1 = 0.8004 | 1245.05 | 1.401
333.15 K, x1 = 0.9011 | 1249.32 | 1.4025
343.15 K, x1 = 0.1001 | 1101.5 | 1.3615
343.15 K, x1 = 0.2002 | 1153.47 | 1.376
343.15 K, x1 = 0.3004 | 1181.98 | 1.385
343.15 K, x1 = 0.4003 | 1200.26 | 1.39
343.15 K, x1 = 0.5009 | 1213.58 | 1.3935
343.15 K, x1 = 0.5999 | 1223.61 | 1.397
343.15 K, x1 = 0.7002 | 1231.58 | 1.3985
343.15 K, x1 = 0.8004 | 1237.51 | 1.3995
343.15 K, x1 = 0.9011 | 1241.76 | 1.401

CCCCn1cc[n+](C)c1.F[B-](F)(F)F [1-butyl-3-methylimidazolium tetrafluoroborate] + O
Conditions | mass density, [1] [kg/m3] | refractive index, [2]
293.15 K, x1 = 0.0994 | 1106.69 | 1.383
293.15 K, x1 = 0.2005 | 1143.19 | 1.397
293.15 K, x1 = 0.3003 | 1161.69 | 1.406
293.15 K, x1 = 0.4003 | 1173.6 | 1.411
293.15 K, x1 = 0.5006 | 1182.13 | 1.414
293.15 K, x1 = 0.6004 | 1188.42 | 1.4165
293.15 K, x1 = 0.7008 | 1193.17 | 1.418
293.15 K, x1 = 0.8006 | 1196.75 | 1.42
293.15 K, x1 = 0.899 | 1199.6 | 1.4215
303.15 K, x1 = 0.0994 | 1100.29 | 1.379
303.15 K, x1 = 0.2005 | 1135.92 | 1.395
303.15 K, x1 = 0.3003 | 1154.24 | 1.403
303.15 K, x1 = 0.4003 | 1166.15 | 1.409
303.15 K, x1 = 0.5006 | 1174.73 | 1.4125
303.15 K, x1 = 0.6004 | 1181.09 | 1.415
303.15 K, x1 = 0.7008 | 1185.92 | 1.4165
303.15 K, x1 = 0.8006 | 1189.58 | 1.418
303.15 K, x1 = 0.899 | 1192.49 | 1.4195
313.15 K, x1 = 0.0994 | 1093.06 | 1.3765
313.15 K, x1 = 0.2005 | 1128.35 | 1.394
313.15 K, x1 = 0.3003 | 1146.77 | 1.4015
313.15 K, x1 = 0.4003 | 1158.78 | 1.4075
313.15 K, x1 = 0.5006 | 1167.43 | 1.41
313.15 K, x1 = 0.6004 | 1173.85 | 1.4125
313.15 K, x1 = 0.7008 | 1178.71 | 1.414
313.15 K, x1 = 0.8006 | 1182.39 | 1.416
313.15 K, x1 = 0.899 | 1185.31 | 1.4175
323.15 K, x1 = 0.0994 | 1085.97 | 1.376
323.15 K, x1 = 0.2005 | 1120.89 | 1.393
323.15 K, x1 = 0.3003 | 1139.33 | 1.4015
323.15 K, x1 = 0.4003 | 1151.42 | 1.4055
323.15 K, x1 = 0.5006 | 1160.15 | 1.4075
323.15 K, x1 = 0.6004 | 1166.65 | 1.4105
323.15 K, x1 = 0.7008 | 1171.59 | 1.4125
323.15 K, x1 = 0.8006 | 1175.31 | 1.414
323.15 K, x1 = 0.899 | 1178.26 | 1.415
333.15 K, x1 = 0.0994 | 1079.15 | 1.3755
333.15 K, x1 = 0.2005 | 1113.47 | 1.39
333.15 K, x1 = 0.3003 | 1131.87 | 1.401
333.15 K, x1 = 0.4003 | 1144.01 | 1.405
333.15 K, x1 = 0.5006 | 1152.8 | 1.4075
333.15 K, x1 = 0.6004 | 1159.37 | 1.4095
333.15 K, x1 = 0.7008 | 1164.36 | 1.411
333.15 K, x1 = 0.8006 | 1168.12 | 1.4125
333.15 K, x1 = 0.899 | 1171.04 | 1.4135
343.15 K, x1 = 0.0994 | 1072.21 | 1.3755
343.15 K, x1 = 0.2005 | 1106.02 | 1.39
343.15 K, x1 = 0.3003 | 1124.41 | 1.401
343.15 K, x1 = 0.4003 | 1136.62 | 1.4045
343.15 K, x1 = 0.5006 | 1145.48 | 1.407
343.15 K, x1 = 0.6004 | 1152.11 | 1.407
343.15 K, x1 = 0.7008 | 1157.17 | 1.4085
343.15 K, x1 = 0.8006 | 1161 | 1.409
343.15 K, x1 = 0.899 | 1164.1 | 1.411
